Source: ChEMBL document CHEMBL1208675, “Validated QSAR analysis of some diaryl substituted pyrazoles as CCR2 inhibitors by various linear and nonlinear multivariate chemometrics methods” (Eur J Med Chem, 2010)

Biological target: C-C chemokine receptor type 2 (Homo sapiens, UniProt P41597)
Experiment: Inhibition of CCR2

Chain of C-C chemokine receptor type 2 (P41597 whole entry): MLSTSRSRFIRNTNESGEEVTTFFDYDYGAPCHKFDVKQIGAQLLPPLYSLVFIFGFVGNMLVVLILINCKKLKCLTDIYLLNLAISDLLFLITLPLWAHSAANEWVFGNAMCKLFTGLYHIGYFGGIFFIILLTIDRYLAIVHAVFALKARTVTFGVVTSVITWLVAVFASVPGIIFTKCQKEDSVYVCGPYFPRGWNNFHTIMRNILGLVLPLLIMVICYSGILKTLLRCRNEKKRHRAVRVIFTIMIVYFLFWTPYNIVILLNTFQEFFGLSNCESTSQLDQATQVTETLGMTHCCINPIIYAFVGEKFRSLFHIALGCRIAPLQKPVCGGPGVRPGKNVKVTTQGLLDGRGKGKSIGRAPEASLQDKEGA

Going from `COC(=O)[C@H](Cc1cnc[nH]1)NC(=O)CCc1cc(-c2cc(Cl)cc(Cl)c2)nn1-c1ccc2ccccc2c1` to `COC(=O)[C@H](CCCN=C(N)N)NC(=O)CCNCc1cc(-c2cc(Cl)cc(Cl)c2)nn1-c1ccc2ccccc2c1`, the IC50 falls from 2.84 µM to 0.043 µM (66-fold).

Compared with `O=C(CCc1cc(-c2cc(Cl)cc(Cl)c2)nn1-c1ccc2ccccc2c1)NCCCc1ccc2c(n1)NCCC2`, `O=C(CCc1cc(-c2cc(Cl)cc(Cl)c2)nn1-c1ccc2ccccc2c1)NCCCc1ccncc1` is 8.3-fold lower in IC50: 9.33 µM for the first, 1.12 µM for the second.

`CN(C)CCCCNC(=O)CCc1cc(-c2cc(Cl)cc(Cl)c2)nn1-c1ccc2ccccc2c1` and `CCN(CC)CCCCNC(=O)CCc1cc(-c2cc(Cl)cc(Cl)c2)nn1-c1ccc2ccccc2c1` are within 1.5-fold of each other in IC50: 1.8 µM for the first, 1.22 µM for the second.

First: CCN(CC)C(C)CCCNC(=O)CCc1cc(-c2cc(Cl)cc(Cl)c2)nn1-c1ccc2ccccc2c1 (centres undefined)
Second: CCN(CC)CCCC(C)NC(=O)CCCc1cc(-c2cc(Cl)cc(Cl)c2)nn1-c1ccc2ccccc2c1 (centres undefined)
The IC50 of the first is 60-fold lower: 0.108 µM for the first, 6.47 µM for the second. The first is the more potent here.

`CCCCC(CCCN(CC)CC)NC(=O)CCOc1cc(-c2cc(Cl)cc(Cl)c2)nn1-c1ccc2ccccc2c1` (centres undefined) gave an IC50 of 0.052 µM.
